Assay results published in US4958010A, “Epipodophyllotoxin glucoside lactam derivatives” (Bristol-Myers Company, priority 1989, dated 1990).
Several values for one entry are separate records, joined by “and”; a condition that tells them apart may be missing. Equal values may be shown once.

How the values were obtained:
P388 leukemia = experiment: antitumor activity against intravenously implanted P388 leukemia in BDF1 female mice; type: in vivo, murine (BDF1 female mice); details: 10^6 P388 cells i.v., etoposide i.p., 125 mg/kg/dose, 64 days
Method: Compound of Example 15 was evaluated against intravenously implanted P388 leukemia (10^6 cells) in BDF1 female mice. The test compound was administered intravenously at various dose levels to groups of six mice on days 5 and 8; the positive control, etoposide, was given intraperitoneally. The experiment lasted 64 days.

HCT/VP35 = experiment: in vitro cytotoxicity assay, HCT/VP35 human colon tumor resistant to etoposide; type: cell-based; details: etoposide-resistant line, concentration required to inhibit cell growth by 50%, four-fold serial dilution, replicate determinations on separate lines
Method: (§1) Representative compounds of the present invention were also evaluated in in vitro cytotoxicity assay against various murine and human tumor cell lines. The in vitro cytotoxicity assay involved growing various mammalian tumor cells, including human tumor cells, on microtitre plates employing established tissue culture methods. The concentration of each compound required to inhibit cell growth by 50% (IC50) was then determined by four-fold serial dilution technique. Tumor cells of the following types were employed for each compound tested: B16-F10 murine melanoma; Moser human colon; SW900 human lung; and two human colon tumor cell lines namely HCT-116, and HCT/VP35, the latter being resistant to etoposide (VP). […] The in vitro data may also be evaluated in terms of potency ratio which is defined as the ratio of IC50 against an etoposide-resistant cell-line to IC50 against an etoposide-sensitive cell-line.

HCT-116 = experiment: in vitro cytotoxicity assay, HCT-116 human colon tumor; type: cell-based; details: concentration required to inhibit cell growth by 50%, four-fold serial dilution, replicate determinations on separate lines
Method: as §1

SW900 human lung = experiment: in vitro cytotoxicity assay, SW900 human lung; type: cell-based; details: concentration required to inhibit cell growth by 50%, four-fold serial dilution, replicate determinations on separate lines
Method: as §1

Moser human colon = experiment: in vitro cytotoxicity assay, Moser human colon; type: cell-based; details: concentration required to inhibit cell growth by 50%, four-fold serial dilution, replicate determinations on separate lines
Method: as §1

B16-F10 murine melanoma = experiment: in vitro cytotoxicity assay, B16-F10 murine melanoma; type: cell-based; details: concentration required to inhibit cell growth by 50%, four-fold serial dilution, replicate determinations on separate lines
Method: as §1

[1] = cited from earlier work

COc1cc([C@@H]2c3cc4c(cc3[C@@H](O[C@@H]3O[C@@H]5CO[C@@H](C)O[C@H]5[C@H](O)[C@H]3O)[C@H]3COC(=O)[C@H]23)OCO4)cc(OC)c1O [etoposide, reference compound]
max. % T/C (positive control) (P388 leukemia): > 753 % T/C
IC50 HCT/VP35 (HCT/VP35): 122.79 µg/mL and 184.01 µg/mL and 98.33 µg/mL and 142.90 µg/mL and 79.06 µg/mL and 48.22 µg/mL
IC50 HCT/VP35 (HCT/VP35; listed as Etoposide): 16.31 µg/mL and 18.74 µg/mL and 140.63 µg/mL
IC50 HCT-116 (HCT-116): 14.78 µg/mL and 20.54 µg/mL and 38.03 µg/mL and 41.01 µg/mL and 3.86 µg/mL and 6.57 µg/mL
IC50 HCT-116 (HCT-116; listed as Etoposide): 15.21 µg/mL and 30.12 µg/mL and 51.27 µg/mL
IC50 SW900 (SW900 human lung): 201.94 µg/mL and 241.29 µg/mL and 243.49 µg/mL and > 500 µg/mL and 77.80 µg/mL and 54.59 µg/mL
IC50 SW900 (SW900 human lung; listed as Etoposide): 213.23 µg/mL and 241.88 µg/mL
IC50 Moser (Moser human colon): 121.73 µg/mL and 163.19 µg/mL and 208.30 µg/mL and 209.76 µg/mL and 65.72 µg/mL and 54.09 µg/mL
IC50 Moser (Moser human colon; listed as Etoposide): 94.51 µg/mL and 97.83 µg/mL and 116.41 µg/mL
IC50 B16-F10 (B16-F10 murine melanoma): 16.75 µg/mL and 19.47 µg/mL and 27.72 µg/mL and 30.38 µg/mL and 9.96 µg/mL and 5.80 µg/mL
IC50 B16-F10 (B16-F10 murine melanoma; listed as Etoposide): 19.36 µg/mL and 51.93 µg/mL and 62.19 µg/mL
in vivo metabolism [1]: extensively metabolized to the open ring hydroxy acid
